Reference: PubChem BioAssay AID588741 (Johns Hopkins Ion Channel Center, 2011)
Calls of active or inactive are those of the source.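 The calls were made as follows: active = peak inhibition of the hERG potassium channel flux above 30% at some tested dose, plus a fitted dose response curve; inactive = no inhibition at any dose, or no curve.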

The compounds below were run against Voltage-gated inwardly rectifying potassium channel KCNH2 (Homo sapiens) (UniProt Q12809) (assay: KCNH2 potassium flux blockade – cell-based, FluxOR thallium flux, CRC set 3, selectivity assay for KCNK9 inhibitor project, SAR follow-up (AID 588741)). Settings: hERG-expressing cells, FluxOR thallium flux fluorescence.
Voltage-gated inwardly rectifying potassium channel KCNH2 (Homo sapiens), sequence (Q12809 whole entry, looked up): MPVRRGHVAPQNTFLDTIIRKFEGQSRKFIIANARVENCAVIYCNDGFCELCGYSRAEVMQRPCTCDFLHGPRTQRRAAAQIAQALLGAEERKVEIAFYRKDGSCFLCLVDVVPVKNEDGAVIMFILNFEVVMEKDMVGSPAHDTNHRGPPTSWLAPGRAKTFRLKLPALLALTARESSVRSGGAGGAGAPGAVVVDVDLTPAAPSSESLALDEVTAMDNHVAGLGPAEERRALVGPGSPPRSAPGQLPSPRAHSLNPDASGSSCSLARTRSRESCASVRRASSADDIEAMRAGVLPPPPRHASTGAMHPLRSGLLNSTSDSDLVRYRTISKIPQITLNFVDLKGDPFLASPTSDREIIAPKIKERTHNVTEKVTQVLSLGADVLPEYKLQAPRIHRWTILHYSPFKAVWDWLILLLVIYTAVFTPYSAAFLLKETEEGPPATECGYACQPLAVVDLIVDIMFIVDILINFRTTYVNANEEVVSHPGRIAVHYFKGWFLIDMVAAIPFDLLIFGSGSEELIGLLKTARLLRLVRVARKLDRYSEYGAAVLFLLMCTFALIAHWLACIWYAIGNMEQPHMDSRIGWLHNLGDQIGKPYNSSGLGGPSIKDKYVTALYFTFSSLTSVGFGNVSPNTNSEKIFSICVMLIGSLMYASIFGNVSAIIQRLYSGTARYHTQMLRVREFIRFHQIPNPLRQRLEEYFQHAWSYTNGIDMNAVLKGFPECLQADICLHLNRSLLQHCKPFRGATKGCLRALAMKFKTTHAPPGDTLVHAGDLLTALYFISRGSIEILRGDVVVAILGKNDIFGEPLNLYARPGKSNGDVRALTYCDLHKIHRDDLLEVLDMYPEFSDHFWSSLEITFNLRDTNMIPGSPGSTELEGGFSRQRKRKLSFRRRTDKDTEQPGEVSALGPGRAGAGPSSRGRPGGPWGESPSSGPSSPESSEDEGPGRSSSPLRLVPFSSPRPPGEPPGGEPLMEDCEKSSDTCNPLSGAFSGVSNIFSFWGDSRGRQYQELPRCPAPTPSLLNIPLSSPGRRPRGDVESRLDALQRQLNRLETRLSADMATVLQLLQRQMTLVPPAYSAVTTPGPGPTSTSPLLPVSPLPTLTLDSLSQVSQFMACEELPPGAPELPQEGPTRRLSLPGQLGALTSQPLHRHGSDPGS
`COc1ccc(C(=O)CSc2nnc(-c3ccco3)n2C(C)C2CC3CCC2C3)cc1OC` (stereo not drawn) showed an IC50 of 13.6 µM. With `COc1cccc(C(=O)CSc2nnc(-c3ccco3)n2C(C)C2CC3CCC2C3)c1` (stereo not drawn) the IC50 was 17.2 µM. `CC(C1CC2CCC1C2)n1c(SCc2ccccc2)nnc1-c1ccco1` (stereo not drawn) was tested, and the IC50 was 9.77 µM. `CC(C1CC2CCC1C2)n1c(SCC(=O)c2ccc3c(c2)OCO3)nnc1-c1ccco1` (stereo not drawn) gave an IC50 of 3.45 µM. Compound `COc1ccc(C(=O)CSc2nnc(-c3ccco3)n2C(C)C2CC3CCC2C3)cc1` (stereo not drawn) has an IC50 of 20.1 µM. `COc1ccc(CCSc2nnc(-c3ccco3)n2C(C)C2CC3CCC2C3)cc1OC` (stereo not drawn) was tested, and the IC50 was 16.7 µM. Compound `CC(C1CC2CCC1C2)n1c(SCC(=O)c2ccccc2)nnc1-c1ccco1` (stereo not drawn) has an IC50 of 23.9 µM.

Same assay, conditions: hERG-expressing cells, FluxOR thallium flux fluorescence; at 30 µM (top of the series)
For `S=c1[nH]nc(-c2ccco2)n1CC1CC2CCC1C2` (stereo not drawn), the “flux ratio, lower = inhibition” value was “inactive”. In the case of `CC(CC1CC2CCC1C2)n1c(-c2ccco2)n[nH]c1=S` (stereo not drawn), the “flux ratio, lower = inhibition” value is reported as “inactive”. `CC(C1CC2CCC1C2)n1c(-c2cccnc2)n[nH]c1=S` (stereo not drawn) was tested, and the “flux ratio, lower = inhibition” value was “inactive”. `CSc1nnc(-c2ccco2)n1C(C)C1CC2CCC1C2` (stereo not drawn) was tested, and the “flux ratio, lower = inhibition” value was “inactive”. `CC(C1CC2CCC1C2)n1c(-c2ccco2)n[nH]c1=S` (stereo not drawn) was tested, and the “flux ratio, lower = inhibition” value was “inactive”. For `CC(C1CC2CCC1C2)n1c(SCC(=O)c2ccc(Cl)c(Cl)c2)nnc1-c1ccco1` (stereo not drawn), the “flux ratio, lower = inhibition” value was “inactive”. In the case of `CC(C1CC2CCC1C2)n1c(-c2ccco2)nnc1C(F)(F)F` (stereo not drawn), the “flux ratio, lower = inhibition” value is reported as “inactive”. In the case of `S=c1[nH]nc(-c2ccco2)n1C1CC2CCC1C2` (stereo not drawn), the “flux ratio, lower = inhibition” value is reported as “inactive”. In the case of `COc1cc(OC)cc(-c2n[nH]c(=S)n2C(C)C2CC3CCC2C3)c1` (stereo not drawn), the “flux ratio, lower = inhibition” value is reported as “inactive”. For `CC(NC(=O)c1ccco1)C1CC2CCC1C2` (stereo not drawn), the “flux ratio, lower = inhibition” value was “inactive”. For `CC(C1CC2CCC1C2)n1c(-c2ccc(N(C)C)cc2)n[nH]c1=S` (stereo not drawn), the “flux ratio, lower = inhibition” value was “inactive”. For `C[C@@H](C1CCCCC1)n1c(-c2ccco2)n[nH]c1=S`, the “flux ratio, lower = inhibition” value was “inactive”. With `CC(C1CC2CCC1C2)n1cnnc1-c1ccco1` (stereo not drawn) the “flux ratio, lower = inhibition” value was “inactive”. In the case of `CC(c1cccc2ccccc12)n1c(-c2ccco2)n[nH]c1=S` (stereo not drawn), the “flux ratio, lower = inhibition” value is reported as “inactive”. In the case of `COc1cccc(-c2nnc(S(C)(=O)=O)n2C(C)C2CC3CCC2C3)c1` (stereo not drawn), the “flux ratio, lower = inhibition” value is reported as “inactive”. `CC(CCC1CCCC1)n1c(-c2ccco2)n[nH]c1=S` (stereo not drawn) was tested, and the “flux ratio, lower = inhibition” value was “inactive”. In the case of `CC(C1CC2CCC1C2)n1c(-c2ccccn2)n[nH]c1=S` (stereo not drawn), the “flux ratio, lower = inhibition” value is reported as “inactive”. With `COc1ccccc1C(=O)Nc1cc(NC(=O)c2ccccc2C(C)C)ccc1F` the “flux ratio, lower = inhibition” value was “inactive”. With `CC(C1CC2CCC1C2)n1c(-c2cccs2)n[nH]c1=S` (stereo not drawn) the “flux ratio, lower = inhibition” value was “inactive”. `C[C@H](C1CCCCC1)n1c(-c2ccco2)n[nH]c1=S` was tested, and the “flux ratio, lower = inhibition” value was “inactive”. With `CC(C1CC2CCC1C2)n1c(-c2ccncc2)n[nH]c1=S` (stereo not drawn) the “flux ratio, lower = inhibition” value was “inactive”. In the case of `CC(C)c1ccccc1C(=O)Nc1cccc(NC(=O)c2ccccc2OC(F)(F)F)c1`, the “flux ratio, lower = inhibition” value is reported as “inactive”. In the case of `COc1cccc(-c2n[nH]c(=S)n2C(C)C2CC3CCC2C3)c1OC` (stereo not drawn), the “flux ratio, lower = inhibition” value is reported as “inactive”. With `COc1ccccc1C(=O)Nc1cccc(NC(=O)c2cccc3ccccc23)c1` the “flux ratio, lower = inhibition” value was “inactive”. In the case of `CC(C1C2CCC1CC2)n1c(-c2ccco2)n[nH]c1=S` (stereo not drawn), the “flux ratio, lower = inhibition” value is reported as “inactive”. In the case of `CC(C1CC2CCC1C2)n1c(-c2cccc(N(C)C)c2)n[nH]c1=S` (stereo not drawn), the “flux ratio, lower = inhibition” value is reported as “inactive”. In the case of `CC(C1CCCCC1)n1c(-c2ccco2)n[nH]c1=S` (stereo not drawn), the “flux ratio, lower = inhibition” value is reported as “inactive”. With `COc1cccc(Cc2n[nH]c(=S)n2C(C)C2CC3CCC2C3)c1` (stereo not drawn) the “flux ratio, lower = inhibition” value was “inactive”. In the case of `CC(C1CC2CCC1C2)n1c(-c2cccc(F)c2)n[nH]c1=S` (stereo not drawn), the “flux ratio, lower = inhibition” value is reported as “inactive”. `CC(C1CC2CCC1C2)n1c(SCC#N)nnc1-c1cccs1` (stereo not drawn) was tested, and the “flux ratio, lower = inhibition” value was “inactive”. In the case of `CC(C)Oc1ccccc1C(=O)Nc1cccc(NC(=O)c2ccccc2OC(F)(F)F)c1`, the “flux ratio, lower = inhibition” value is reported as “inactive”. With `CC(C1CC2CCC1C2)n1c(-c2ccco2)n[nH]c1=O` (stereo not drawn) the “flux ratio, lower = inhibition” value was “inactive”. `CC(C1CC2CCC1C2)N(C)C(=O)c1ccco1` (stereo not drawn) was tested, and the “flux ratio, lower = inhibition” value was “inactive”. In the case of `CC(C1CC2CCC1C2)n1c(SC(F)F)nnc1-c1ccco1` (stereo not drawn), the “flux ratio, lower = inhibition” value is reported as “inactive”. `CC(C1CC2CCC1C2)n1c(-c2cccn2C)n[nH]c1=S` (stereo not drawn) was tested, and the “flux ratio, lower = inhibition” value was “inactive”. In the case of `CC(C1CC2CCC1C2)n1c(-c2ccccc2F)n[nH]c1=S` (stereo not drawn), the “flux ratio, lower = inhibition” value is reported as “inactive”.
